{
  "source": "patent US9957566B2",
  "about": "“Screening method” (THE UNIVERSITY OF BIRMINGHAM, priority 2009, dated 2018)",
  "key": {"peripheral lymphocytes [1]": {"test_system": "peripheral lymphocytes", "assay": "Lymphocyte culture with or without rapamycin, LDH cytotoxicity assay for number of cell divisions", "format": "cell-based, human", "settings": "100 ng/ml rapamycin, 24 hours", "method": "(§1) Peripheral lymphocytes (thawed from storage as appropriate) were cultured in a growth medium of RPMI 1640 supplemented with 15% FCS (heat inactivated), plus 2% I-glutamine and 1% penicillin/streptamycin, in the presence of 2.5% phytohaemagglutinin (PHA) for 48 hours at 37° C., 5% CO2, to reach exponential growth. Cultures were prepared in a 96 well plate format, with 6 or 8 wells allocated to each patient (test subject). One single plate could therefore hold eleven sets of patient samples, plus one set of standard samples.\n(§2) Once exponential growth of the cells was achieved, the lymphocyte cultures were treated with either growth medium (as above) alone, or the same growth medium plus 100 ng/ml rapamycin, in triplicate/quadruplicate for each patient.\n(§3) Cell cultures were harvested after 24 hours. Samples intended for cytotoxicity testing (LDH assay) were frozen at −20° C., whereas samples intended for analysis by flow cytometry were fixed in 85% cold ethanol.\nMeasurement of cell numbers in the cell cultures prepared in 3) was carried out by LDH cytotoxicity assay using the CytoTox 96® Non-Radioactive Cytotoxicity Assay Kit from Promega, according to the instructions supplied by the manufacturer.\nThe assays were set up in 96-well plate format, using 30 μl of lymphocyte culture and 50 μl of LDH substrate mix per well (substrate mix is a component of the CytoTox kit, diluted prior to use). Patient samples cultured with or without rapamycin were each tested in triplicate. The assay plates also included diluted standards of LDH positive control (serial dilutions of LDH positive control in lymphocyte culture medium; triplicate samples of 30 μl at each of 1:2500, 1:5000, 1:10,000, 1:20,000, 1:40,000, 1:80,000 and 1:160,000 dilution), to allow construction of a calibration curve.\nThe reactions were then stopped by adding 50 μl of cold Stop Solution (component of the CytoTox kit) to each well. Optical density was then read at 490 nm.\n(§4) The LDH cytotoxicity assay gave a value for total cell numbers in each lymphocyte culture (with or without rapamycin). […]"}, "peripheral lymphocytes [2]": {"test_system": "peripheral lymphocytes", "assay": "Lymphocyte culture with or without rapamycin, flow cytometry cell cycle analysis (TG1)", "format": "cell-based, human", "settings": "100 ng/ml rapamycin, 24 hours", "method": "as §1, §2, §3\n96-well plate lymphocytes cultures (with or without rapamycin) fixed in ethanol (end of step 3) were spun at 400 g for 10 minutes at RT with no breaks. Supernatants were removed and the cell pellets resuspended in 0.300 ml ice-cold PBS/well. The plates were spun again at 400 g for 10 minutes at RT with no breaks. Supernatants were again removed and the cell pellets re-suspended in 0.080 ml of propidium iodide (P1) staining solution/well.\nThe flow cytometer (FacsCalibur BD) was set up to distinguish well between the G1 and G2 peaks (at least 200 units apart).\nUsing as a Marker measure the PI reading equivalent to the G1 peak and the G2 peak the parameter X was calculated based on the relation: X=(G2peak−G1peak)/4\nas §4\n[formula] fG1 is the proportion of cells in the G1 phase of the cell cycle as measured by flow cytometry.\nFinally, TG1 values calculated for rapamycin treated and untreated lymphocyte cultures from the same test subject were compared."}, "[3]": {"settings": "subjects with 0 ApoE4 alleles (n=54)"}, "[4]": {"settings": "subjects with 1 ApoE4 allele (n=38)"}, "[5]": {"settings": "subjects with 2 ApoE4 alleles (n=8)"}},
  "data": [
    {"smiles": "CO[C@H]1C[C@@H]2CC[C@@H](C)[C@@](O)(O2)C(=O)C(=O)N2CCCC[C@H]2C(=O)O[C@H]([C@H](C)C[C@@H]2CC[C@@H](O)[C@H](OC)C2)CC(=O)[C@H](C)/C=C(\\C)[C@@H](O)[C@@H](OC)C(=O)[C@H](C)C[C@H](C)/C=C/C=C/C=C/1C", "note": "[Rapamycin, rapamycin]", "values": [
      {"measurement": "n rapa/n = change in the number of cell divisions under the effect of Rapamycin relative to control cultures from the same individual (mean)", "setting": "peripheral lymphocytes [1]; [3]", "result": 1.3044},
      {"measurement": "n rapa/n = change in the number of cell divisions under the effect of Rapamycin relative to control cultures from the same individual (mean)", "setting": "peripheral lymphocytes [1]; [4]", "result": 1.3775},
      {"measurement": "n rapa/n = change in the number of cell divisions under the effect of Rapamycin relative to control cultures from the same individual (mean)", "setting": "peripheral lymphocytes [1]; [5]", "result": 1.4624},
      {"measurement": "TG1 Rapa = length of the G1 time under the effect of Rapamycin (mean)", "setting": "peripheral lymphocytes [2]; [3]", "result": 13.9944},
      {"measurement": "TG1 Rapa = length of the G1 time under the effect of Rapamycin (mean)", "setting": "peripheral lymphocytes [2]; [4]", "result": 13.7038},
      {"measurement": "TG1 Rapa = length of the G1 time under the effect of Rapamycin (mean)", "setting": "peripheral lymphocytes [2]; [5]", "result": 13.1059}
    ]}
  ]
}
